Results published in PMC8129133, “Polymer-free corticosteroid dimer implants for controlled and sustained drug delivery” (Nature Communications, 2021).
Values joined by “and” are separate entries in the source; they are usually repeats but may differ in a detail not shown here. Equal entries are not always repeated.

Assay: In vitro release
Type: physicochemical
Conditions: for Cumulative Dex (%): Fig 4b pellet 1x1 mm; for 23G x 6 mm - Cumulative Dex Release, % / 30G x 6 mm - Cumulative Dex Release, % / 23G x 6 mm - Cumulative Dex Release / 30G x 6 mm - Cumulative Dex Release: Fig 4e; for 23G x 6 mm - Cumulative Dex Release, % / 30G x 6 mm - Cumulative Dex Release, %: AVG; for 23G x 6 mm - Cumulative Dex Release / 30G x 6 mm - Cumulative Dex Release: single samples and AVG
Protocol: Pellets for release studies. Crystalline drug dimers were weighed on a stainless steel coupon. In the case of blends with a second drug, the dimer and drug were mixed at the desired mass ratio with mortar and pestle prior to weighing. Samples were transferred to a heat press (Carver Laboratory Press). A PTFE mold containing an array of 1 mm diameter holes of 1 mm depth was placed on top of the melt, and pressure was applied for 2 min. Molded pellets were cooled to room temperature and punched out of the mold, yielding a pellet of 1 mm height × 1 mm diameter.
Release studies were carried out using different media, including PBS (pH 7.4, Gibco), 100% FBS (Sigma, F1051), 1% FBS in PBS pH 7.4, and 3.6% BSA (Sigma, A7906) in PBS (pH 7.4, Gibco). […] Samples were incubated in release medium at 37 °C under constant agitation on an orbital shaker at 115 rpm (VWR). At designated timepoints, sampling was performed by complete removal of medium and replenishment with fresh buffer. Sampling timepoints included 24 h and then every 3–4 days thereafter. For PBS release conditions, samples were analyzed directly. For samples with protein (100% FBS, 1% FBS, 3.6% BSA), protein was precipitated by addition of acetonitrile. Samples were vortexed and centrifuged to separate extracted drug from precipitated protein. The supernatant was then analyzed for drug concentration by HPLC.

For `C[C@@H]1C[C@H]2[C@@H]3CCC4=CC(=O)C=C[C@]4(C)[C@@]3(F)[C@@H](O)C[C@]2(C)[C@@]1(O)C(=O)COC(=O)OCCOCCOCCOC(=O)OCC(=O)[C@@]1(O)[C@H](C)C[C@H]2[C@@H]3CCC4=CC(=O)C=C[C@]4(C)[C@@]3(F)[C@@H](O)C[C@@]21C` [Dex-TEG-Dex], the “Cumulative Dex (%)” value (1% FBS, Day 1) was 0.0326% and 0.0366% and 0.0447%, the “Cumulative Dex (%)” value (1% FBS, Day 3) was 0.11% and 0.12% and 0.13% and the “Cumulative Dex (%)” value (1% FBS, Day 7) was 0.35% and 0.44% and 0.38%. For the same molecule, the “Cumulative Dex (%)” value (1% FBS, Day 10) was 0.52% and 0.59% and 0.51%, the “Cumulative Dex (%)” value (1% FBS, Day 14) was 0.81% and 0.96% and 0.85% and the “Cumulative Dex (%)” value (1% FBS, Day 17) was 0.94% and 1.07% and 1.04%. For the same molecule, the “Cumulative Dex (%)” value (1% FBS, Day 21) was 1.22% and 1.44% and 1.42%, the “Cumulative Dex (%)” value (1% FBS, Day 24) was 1.37% and 1.56% and 1.61% and the “Cumulative Dex (%)” value (1% FBS, Day 28) was 1.58% and 1.84% and 1.93%. The “Cumulative Dex (%)” value (1% FBS, Day 31) was 1.78% and 2.05% and 2.12%, the “Cumulative Dex (%)” value (1% FBS, Day 35) was 1.95% and 2.46% and 2.48% and the “Cumulative Dex (%)” value (100% FBS, Day 1) was 1.59% and 1.88% and 1.25%. For the same molecule, the “Cumulative Dex (%)” value (100% FBS, Day 3) was 6.12% and 9.16% and 4.64%, the “Cumulative Dex (%)” value (100% FBS, Day 7) was 11.07% and 13.41% and 9.59% and the “Cumulative Dex (%)” value (100% FBS, Day 10) was 15.60% and 21.36% and 19.29%. The “Cumulative Dex (%)” value (100% FBS, Day 14) was 21.12% and 26.30% and 23.66%, the “Cumulative Dex (%)” value (100% FBS, Day 17) was 25.65% and 33.52% and 29.96% and the “Cumulative Dex (%)” value (100% FBS, Day 21) was 29.80% and 39.06% and 33.88%. The “Cumulative Dex (%)” value (100% FBS, Day 24) was 34.99% and 43.22% and 37.26%, the “Cumulative Dex (%)” value (100% FBS, Day 28) was 41.40% and 49.76% and 42.62% and the “Cumulative Dex (%)” value (100% FBS, Day 31) was 49.48% and 56.79% and 48.41%. For the same molecule, the “Cumulative Dex (%)” value (100% FBS, Day 35) was 52.66% and 62.41% and 52.08%, the “Cumulative Dex (%)” value (PBS, Day 1) was 0.0268% and 0.0111% and 0.0155% and the “Cumulative Dex (%)” value (PBS, Day 7) was 0.06% and 0.0341% and 0.04%. The “Cumulative Dex (%)” value (PBS, Day 10) was 0.075% and 0.04% and 0.05%, the “Cumulative Dex (%)” value (PBS, Day 14) was 0.09% and 0.05% and 0.06% and the “Cumulative Dex (%)” value (PBS, Day 17) was 0.10% and 0.0566% and 0.07%. For the same molecule, the “Cumulative Dex (%)” value (PBS, Day 21) was 0.12% and 0.07% and 0.09%, the “Cumulative Dex (%)” value (PBS, Day 24) was 0.13% and 0.08% and 0.10% and the “Cumulative Dex (%)” value (PBS, Day 28) was 0.15% and 0.09% and 0.11%. For the same molecule, the “Cumulative Dex (%)” value (PBS, Day 31) was 0.16% and 0.11% and 0.12%, the “Cumulative Dex (%)” value (PBS, Day 35) was 0.17% and 0.12% and 0.13% and the “23G x 6 mm - Cumulative Dex Release, %” value (Day 3) was 1.00%. The “30G x 6 mm - Cumulative Dex Release, %” value (Day 3) was 4.68%, the “23G x 6 mm - Cumulative Dex Release” value (Day 3) was 3729.09 ng and 2929.83 ng and 3290.92 ng and 3423.46 ng and 3390.39 ng and 4152.03 ng and the “30G x 6 mm - Cumulative Dex Release” value (Day 3) was 3437.65 ng and 3035.80 ng and 2955.67 ng and 2307.19 ng and 3016.47 ng. For the same molecule, the “23G x 6 mm - Cumulative Dex Release” value (Day 3, mean) was 3485.95 ng, the “30G x 6 mm - Cumulative Dex Release” value (Day 3, mean) was 2950.56 ng and the “23G x 6 mm - Cumulative Dex Release, %” value (Day 8) was 1.83%. For the same molecule, the “30G x 6 mm - Cumulative Dex Release, %” value (Day 8) was 10.16%, the “23G x 6 mm - Cumulative Dex Release” value (Day 8) was 7366.47 ng and 5713.70 ng and 5752.02 ng and 6286.74 ng and 6353.56 ng and 6670.93 ng and the “30G x 6 mm - Cumulative Dex Release” value (Day 8) was 7053.30 ng and 6157.33 ng and 6454.99 ng and 5803.26 ng and 6543.46 ng. The “23G x 6 mm - Cumulative Dex Release” value (Day 8, mean) was 6357.24 ng, the “30G x 6 mm - Cumulative Dex Release” value (Day 8, mean) was 6402.47 ng and the “23G x 6 mm - Cumulative Dex Release, %” value (Day 10) was 2.30%. For the same molecule, the “30G x 6 mm - Cumulative Dex Release, %” value (Day 10) was 11.65%, the “23G x 6 mm - Cumulative Dex Release” value (Day 10) was 9158.12 ng and 7456.22 ng and 6722.99 ng and 8377.04 ng and 7947.05 ng and 8287.22 ng and the “30G x 6 mm - Cumulative Dex Release” value (Day 10) was 7909.95 ng and 7094.85 ng and 7391.21 ng and 6693.85 ng and 7620.80 ng. The “23G x 6 mm - Cumulative Dex Release” value (Day 10, mean) was 7991.44 ng, the “30G x 6 mm - Cumulative Dex Release” value (Day 10, mean) was 7342.13 ng and the “23G x 6 mm - Cumulative Dex Release, %” value (Day 14) was 3.12%. For the same molecule, the “30G x 6 mm - Cumulative Dex Release, %” value (Day 14) was 14.82%, the “23G x 6 mm - Cumulative Dex Release” value (Day 14) was 11851.57 ng and 10258.34 ng and 8632.68 ng and 12053.80 ng and 11294.23 ng and 11036.15 ng and the “30G x 6 mm - Cumulative Dex Release” value (Day 14) was 9732.58 ng and 9343.08 ng and 9295.87 ng and 8576.11 ng and 9731.17 ng. The “23G x 6 mm - Cumulative Dex Release” value (Day 14, mean) was 10854.46 ng, the “30G x 6 mm - Cumulative Dex Release” value (Day 14, mean) was 9335.76 ng and the “23G x 6 mm - Cumulative Dex Release, %” value (Day 17) was 3.78%. The “30G x 6 mm - Cumulative Dex Release, %” value (Day 17) was 17.41%, the “23G x 6 mm - Cumulative Dex Release” value (Day 17) was 14384.84 ng and 12536.91 ng and 10299.95 ng and 14655.10 ng and 13823.20 ng and 13226.26 ng and the “30G x 6 mm - Cumulative Dex Release” value (Day 17) was 11350.14 ng and 11189.72 ng and 10651.54 ng and 10149.26 ng and 11503.70 ng. For the same molecule, the “23G x 6 mm - Cumulative Dex Release” value (Day 17, mean) was 13154.38 ng, the “30G x 6 mm - Cumulative Dex Release” value (Day 17, mean) was 10968.87 ng and the “23G x 6 mm - Cumulative Dex Release, %” value (Day 21) was 4.61%. The “30G x 6 mm - Cumulative Dex Release, %” value (Day 21) was 21.03%, the “23G x 6 mm - Cumulative Dex Release” value (Day 21) was 17889.27 ng and 15640.68 ng and 12427.10 ng and 17536.82 ng and 17079.10 ng and 15733.26 ng and the “30G x 6 mm - Cumulative Dex Release” value (Day 21) was 13690.06 ng and 13583.23 ng and 12649.08 ng and 12021.08 ng and 14305.00 ng. The “23G x 6 mm - Cumulative Dex Release” value (Day 21, mean) was 16051.04 ng, the “30G x 6 mm - Cumulative Dex Release” value (Day 21, mean) was 13249.69 ng and the “23G x 6 mm - Cumulative Dex Release, %” value (Day 24) was 5.14%. For the same molecule, the “30G x 6 mm - Cumulative Dex Release, %” value (Day 24) was 23.23%, the “23G x 6 mm - Cumulative Dex Release” value (Day 24) was 20230.97 ng and 17190.29 ng and 13784.68 ng and 19329.36 ng and 19335.19 ng and 17491.78 ng and the “30G x 6 mm - Cumulative Dex Release” value (Day 24) was 15132.41 ng and 14970.59 ng and 13925.27 ng and 13373.61 ng and 15759.23 ng. The “23G x 6 mm - Cumulative Dex Release” value (Day 24, mean) was 17893.71 ng.
